Consider 37 molecules from US8895585B2, “Nicotinamide derivative or salt thereof” (FUJIFILM Corporation, priority 2010, dated 2014).

This assay concerns the target T1, glutathione S-transferase (GST)-fused full-length human Syk protein (Homo sapiens, UniProt P43405).
T1 construct: (GST)-fused full-length human Syk protein; GST (glutathione S-transferase); purchased Carna Biosciences
The assay is described as follows: Syk enzyme assay. It is filed as biochemical. The protocol: A glutathione S-transferase (GST)-fused full-length human Syk protein (Carna Biosciences), which had been generated using a Baculovirus expression system, was used in the Syk enzyme assay.
15 μl of a reaction solution (1.2 ng Syk, 20 mM HEPES, 10 mM MgCl2, 50 mM NaCl, 2 mM DTT, 0.05% BSA, pH 7.0) containing a Syk protein and a predetermined concentration of a test compound was shaken for 2 minutes, and it was then left at rest at room temperature for 13 minutes. Thereafter, 5 μl of Biotin-EDPDYEWPSA-NH2 (final concentration: 0.4 μM) serving as a substrate peptide and 5 μl of ATP (final concentration: 27 μM) were added to the reaction solution, and the obtained mixture was then shaken for 2 minutes. The reaction solution was further left at rest at room temperature for 40 minutes, so as to carry out an enzyme reaction.
Thereafter, 50 μl of a reaction termination solution [5 μg/ml Streptavidin, 0.18 μg/ml PT66-K, 30 mM HEPES (pH 7.0), 150 mM KF, 75 mM EDTA, 0.15% BSA, 0.075% Tween20], which contained Streptavidin-Xlent (Cisbio) and Mab PT66-K (Cisbio), was added to the reaction solution to terminate the enzyme reaction. At the same time, the reaction solution was left at rest at room temperature for 1 hour, so as to carry out an antigen-antibody reaction. Thereafter, using EnVision (PerkinElmer), the time-resolved fluorescence was measured at 615 nm and 665 nm, so that the phosphorylation of the substrate peptide was measured.
In addition, the following are standards for evaluating IC50 of Syk-inhibitory activity used in Table 21. • A: Up to 10 nM • B: 10 to 50 nM • C: 50 to 100 nM • D: 100 to 1000 nM The set of numbers (XYZ-xyz) given in each Example number column indicates the corresponding Example number (Example XYZ-xyz) in Table 21.

[1] abbreviates: Syk enzyme assay, Test Example 1, read-out: IC50 of Syk-inhibitory activity.

Like-named read-outs stand apart in the source and are kept apart here. Bounds are passed on as bounds.

With `CC[C@H](N)[C@@H](CC)Nc1nc(Nc2cccc3c2cnn3C)c(C(N)=O)cc1F` [Example 006-367, 6-(((3R,4S)-4-aminohexan-3-yl)amino)-5-fluoro-2-((1-methyl-1H-indazol-4-yl)amino)nicotinamide], the half-inhibitory concentration (IC50) under setting [1] is 10 to 50 nM.

As for `CC[C@@H](Nc1nc(Nc2cncc(-c3cc(OC)ccc3F)c2)c(C(N)=O)cc1F)[C@H](C)N` [Example 006-280, 6-(((2S,3R)-2-aminopentan-3-yl)amino)-5-fluoro-2-((5-(2-fluoro-5-methoxyphenyl)pyridin-3-yl)amino)nicotinamide], under setting [1], the half-maximal inhibitory concentration (IC50) was less than 10 nM.

Regarding `NC(=O)c1cc(F)c(N[C@@H]2CCCC[C@@H]2N)nc1Nc1ccc2c(OCC3CCCO3)nccc2c1` (relative stereo) [Example 004-171, 6-(cis-2-aminocyclohexylamino)-5-fluoro-2-((1-((tetrahydrofuran-2-yl)-methoxy)isoquinolin-6-yl)amino)nicotinamide], the IC50 under setting [1] is less than 10 nM.

Turning to `NC(=O)c1cc(F)c(NC2CCCCC2N)nc1Nc1cc(-c2ccccc2)ncc1F` (stereo not shown) [Example 002-168], under setting [1], the IC50 fell in the range of 10 to 50 nM.

With `COc1cccc(-c2cc(Nc3nc(NC4CCCCC4N)c(F)cc3C(N)=O)ccn2)c1` (stereo not shown) [Example 002-183], the IC50 under setting [1] was less than 10 nM.

For `COc1ccc(-c2cncc(Nc3nc(N[C@@H]4CCCC[C@@H]4N)c(F)cc3C(N)=O)c2)cn1` (relative stereo) [Example 004-231, 6-((cis-2-aminocyclohexyl)amino)-5-fluoro-2-((6′-methoxy-[3,3′-bipyridin]-5-yl)amino)nicotinamide], the IC50 under setting [1] was 10 to 50 nM.

Turning to `NC(=O)c1cc(F)c(NC2CCCCC2N)nc1Nc1ccnc(-c2ccccc2)c1F` (stereo not shown) [Example 002-167], the IC50 under setting [1] lay in the range of 10 to 50 nM.

Consider `NC(=O)c1cc(F)c(N[C@@H]2CCCC[C@@H]2N)nc1Nc1cncc(-c2cccc(N3CCOCC3)c2)c1` (relative stereo) [Example 004-221, 6-(cis-2-aminocyclohexylamino)-5-fluoro-2-((5-(3-morpholinophenyl)pyridin-3-yl)amino)nicotinamide], for which the concentration for half-maximal inhibition (IC50) under setting [1] was less than 10 nM.

As to `CC(C)COc1nccc2cc(Nc3nc(N[C@@H]4CCCC[C@@H]4N)c(F)cc3C(N)=O)ccc12` (relative stereo) [Example 004-167, 6-(cis-2-aminocyclohexylamino)-5-fluoro-2-((1-isobutoxyisoquinolin-6-yl)amino)-nicotinamide], the IC50 under setting [1] was less than 10 nM.

`COCCn1nc(C(C)C)c2cc(Nc3nc(N[C@@H]4CCCC[C@@H]4N)c(F)cc3C(N)=O)ccc21` [Example 006-463, 6-(((1R,2S)-2-aminocyclohexyl)amino)-5-fluoro-2-((3-isopropyl-1-(2-methoxyethyl)-1H-indazol-5-yl)amino)nicotinamide]: the IC50 under setting [1] is less than 10 nM.

As for `CC(C)COCCOc1ccc2cc(Nc3nc(NC4CCCCC4N)c(F)cc3C(N)=O)ccc2n1` (stereo not shown) [Example 002-109], the IC50 under setting [1] was in the range of 10 to 50 nM.

For the molecule `NC(=O)c1cc(F)c(NCC(N)Cc2ccccc2)nc1Nc1ccc2ncccc2c1` (stereo not shown) [Example 014-003], the IC50 under setting [1] is 50 to 100 nM.

In the case of `NCCNc1nc(Nc2cncc(-c3ccccc3)c2)c(C(N)=O)cc1F` [Example 006-089, 6-((2-aminoethyl)amino)-5-fluoro-2-((5-phenylpyridin-3-yl)amino)nicotinamide], the IC50 under setting [1] is 10 to 50 nM.

Turning to `CCCc1nn(C2CC2)c2ccc(Nc3nc(N[C@H](CC4CC4)[C@H](C)N)c(F)cc3C(N)=O)cc12` [Example 006-482, 6-(((2R,3S)-3-amino-1-cyclopropylbutan-2-yl)amino)-2-((1-cyclopropyl-3-propyl-1H-indazol-5-yl)amino)-5-fluoronicotinamide], the half-maximal inhibitory concentration (IC50) under setting [1] is less than 10 nM.

For `NC(=O)c1cc(F)c(NC2CCCCC2N)nc1Nc1ccc(N2CCCC2=O)nc1` (stereo not shown) [Example 002-156], the IC50 under setting [1] lay within 50 to 100 nM.

Regarding `COc1cc(Nc2nc(NC(C(N)=O)c3ccccc3)c(F)cc2C(N)=O)cc(OC)c1` (stereo not shown) [Example 16-9, 6-((2-amino-2-oxo-1-phenylethyl)amino)-2-((3,5-dimethoxyphenyl)amino)-5-fluoronicotinamide], where the note is “read-out: Syk-inhibitory activity (IC50)”, the half-inhibitory concentration (IC50) is no more than 1000 nM.

In the case of `NC(=O)c1cc(F)c(N[C@@H]2CCCC[C@@H]2N)nc1Nc1cncc(-c2cccc(Cl)c2)c1` (relative stereo) [Example 004-147, 6-(cis-2-aminocyclohexylamino)-2-((5-(3-chlorophenyl)pyridin-3-yl)amino)-5-fluoronicotinamide], under setting [1], the IC50 was less than 10 nM.

On to `CC[C@H](Nc1nc(Nc2ccc3ncccc3c2)c(C(N)=O)cc1F)[C@H](C)N` [Example 006-179, 6-(((2S,3S)-2-aminopentan-3-yl)amino)-5-fluoro-2-((quinolin-6-yl)amino)nicotinamide], for which, under setting [1], the 50% inhibitory concentration (IC50) was 50 to 100 nM.

`NC(=O)c1cc(F)c(NC2CCCC2N)nc1Nc1ccc2ncccc2c1` (stereo not drawn) [Example 006-175, 6-((cis-2-aminocyclopentyl)amino)-5-fluoro-2-(quinolin-6-yl)amino)nicotinamide]: the IC50 under setting [1] was in the range of 10 to 50 nM.

For `NC(=O)c1cc(F)c(N[C@@H]2CCCC[C@@H]2N)nc1Nc1cc(C(F)(F)F)cc2[nH]ccc12` (relative stereo) [Example 004-085, 6-(cis-2-aminocyclohexylamino)-5-fluoro-2-((6-(trifluoromethyl)-1H-indol-4-yl)amino)-nicotinamide], the concentration for half-maximal inhibition (IC50) under setting [1] is less than 10 nM.

Regarding `COc1cc(Nc2nc(NCc3ccccc3N)c(F)cc2C(N)=O)cc(OC)c1` [Example 016-014], the IC50 under setting [1] fell in the range of 100 to 1000 nM.

As to `NC(=O)c1cc(F)c(NC2CCCCC2N)nc1Nc1ccnc(-c2ccc[nH]2)c1` (stereo not shown) [Example 002-051], the half-maximal inhibitory concentration (IC50) under setting [1] was less than 10 nM.

For `CCn1nc(C2CC2)c2cc(Nc3nc(N[C@H](CC4CC4)[C@H](C)N)c(F)cc3C(N)=O)ccc21` [Example 006-549, 6-(((2R,3S)-3-amino-1-cyclopropylbutan-2-yl)amino)-2-((3-cyclopropyl-1-ethyl-1H-indazol-5-yl)amino)-5-fluoronicotinamide], under setting [1], the concentration for half-maximal inhibition (IC50) is less than 10 nM.

With `Cc1ccc(-c2cc(Nc3nc(NC4CCCCC4N)c(F)cc3C(N)=O)ccn2)o1` (stereo not shown) [Example 002-063], under setting [1], the concentration for half-maximal inhibition (IC50) is less than 10 nM.

As for `CNc1nc(Nc2cc(OC)cc(OC)c2)c(C(N)=O)cc1F` [Example 022-008], the IC50 under setting [1] is 100 to 1000 nM.

In the case of `NC(=O)c1cc(F)c(NCc2ccc[nH]2)nc1Nc1ccc2ncccc2c1` [Example 012-003], the half-inhibitory concentration (IC50) under setting [1] lay in the range of 100 to 1000 nM.

For `C[C@H](N)[C@@H](CC1CC1)Nc1nc(Nc2ccc3c(c2)c(N2CCOCC2)nn3C)c(C(N)=O)cc1F` [Example 006-561, 6-(((2R,3S)-3-amino-1-cyclopropylbutan-2-yl)amino)-5-fluoro-2-((1-methyl-3-morpholino-1H-indazol-5-yl)amino)nicotinamide], the IC50 under setting [1] is less than 10 nM.

With `Cc1ccc(Nc2nc(NC[C@H](C)N)c(F)cc2C(N)=O)cn1` [Example 006-095, (S)-6-((2-aminopropyl)amino)-5-fluoro-2-((6-methylpyridin-3-yl)amino)nicotinamide], the IC50 under setting [1] is 100 to 1000 nM.

As to `CCCOc1cc(Nc2nc(NC3CCCCC3N)c(F)cc2C(N)=O)ccn1` (stereo not shown) [Example 002-082], under setting [1], the IC50 was less than 10 nM.

With `COc1cc(Nc2nc(Nc3ccncc3)c(F)cc2C(N)=O)cc(OC)c1` [Example 016-020], the IC50 under setting [1] fell in the range of 100 to 1000 nM.

`NC(=O)c1cc(F)c(N[C@@H]2CCCC[C@@H]2N)nc1Nc1cncc(-c2cccc(F)c2)c1` (relative stereo) [Example 004-144, 6-(cis-2-aminocyclohexylamino)-5-fluoro-2-((5-(3-fluorophenyl)pyridin-3-yl)amino)-nicotinamide]: the IC50 under setting [1] is less than 10 nM.

As to `NC(=O)c1cc(F)c(NCc2cnn[nH]2)nc1Nc1ccc2ncccc2c1` [Example 012-027], the concentration for half-maximal inhibition (IC50) under setting [1] lay in the range of 50 to 100 nM.

Turning to `CNC(=O)c1cncc(Nc2nc(N[C@@H]3CCCC[C@@H]3N)c(F)cc2C(N)=O)c1` [Example 004-010], the 50% inhibitory concentration (IC50) under setting [1] lay within 10 to 50 nM.

Regarding `NC(=O)c1cc(F)c(N[C@@H]2CCCC[C@@H]2N)nc1Nc1cnc2cc(-n3nccn3)ccc2c1` (relative stereo) [Example 004-209, 2-((7-(2H-1,2,3-triazol-2-yl)quinolin-3-yl)amino)-6-(cis-2-aminocyclohexylamino)-5-fluoronicotinamide], the IC50 under setting [1] was less than 10 nM.

For the molecule `COC(C)CCOc1ncc(Nc2nc(N[C@@H]3CCCC[C@@H]3N)c(F)cc2C(N)=O)c2ccccc12` (relative stereo) [Example 004-151, 6-(cis-2-aminocyclohexylamino)-5-fluoro-2-((1-(3-methoxybutoxy)isoquinolin-4-yl)amino)-nicotinamide], the 50% inhibitory concentration (IC50) under setting [1] fell in the range of 100 to 1000 nM.

Consider `NC(=O)c1cc(F)c(NC2CCCCC2N)nc1Nc1ccnc(-c2cn[nH]c2)c1` (stereo not shown) [Example 002-070], for which, under setting [1], the half-inhibitory concentration (IC50) is less than 10 nM.

Regarding `CCOCCOCCNc1cccc2cc(Nc3nc(N[C@@H]4CCCC[C@@H]4N)c(F)cc3C(N)=O)cnc12` [Example 004-133], the concentration for half-maximal inhibition (IC50) under setting [1] was 10 to 50 nM.

Usually IC50 stands for the concentration at which inhibition is half-maximal.
